The results in this text go back to EP4389762A1, “INHIBITORS OF DUX4 ACTIVITY AND THEIR USE IN THERAPY” (Ospedale San Raffaele S.r.l., priority 2022, dated 2024).

One test has as its target T1, DUX4 dbd (Homo sapiens, UniProt Q9UBX2).
T1 construct: employing pETGB1-6xHis-DUX4 dbd (residues 1-159) vector as template; GB1; made in house; host or cells: E. coli Rosetta2(DE3) pLys
In words: His pull-down assay. It is filed as binding. The note with it: purified His-DUX4 dbd immobilized, biotinylated MATR3 peptides. How it is done: To test the interaction between 6xHis-DUX4 dbd and MATR3 synthetic peptides (prepared by CASLO; Lot No.: P230321-01-01, P230321-01-02, Lot No.: P230321-01-03), 40 pmol of 6xHis-DUX4 dbd were immobilized on His-Select Nickel Affinity gel beads (Sigma) incubating 1 hour on rotation at 4°C in IPP100 buffer (10 mM Tris-HCl pH 8.00, 100 mM NaCl, 0.1% NP-40) supplemented with 0,1 mM PMSF. Next, 4 pmol of MATR3 synthetic peptides were added incubating on rotation for 2 hours at 4°C. MATR3 peptides were incubated with the beads as negative control. Beads were washed 4 times with IPP100 buffer, boiled in 50 µl of Laemmli Sample Buffer (Bio-Rad), centrifuged and the eluted proteins were collected. Samples were stored at -20°C. Pull-down samples were boiled at 95°C for 5 minutes and bounded fractions (10%) were loaded on 15% SDS-Page acrylamide gel. The immunoblotting was performed following the procedure reported above but the wet transfer was performed at 200mA for 1.5 hours (instead of 2 hours) at 4°C. To test the interaction between DUX4 dbd and 6xHis-SUM03-MATR3(210-255), 40 pmol of 6xHis-SUMO3-MATR3(210-255) were immobilized on His-Select Nickel Affinity gel beads (Sigma) incubating 1 hour on rotation at 4°C in IPP100 buffer (10 mM Tris-HCl pH 8.00, 100 mM NaCl, 0.1% NP-40) supplemented with 0,1 mM PMSF. Next, 40 pmol of DUX4(15-155) without tag were added incubating on rotation for 2 hours at 4°C. DUX4(15-155) alone was incubated with the beads as negative control. Beads were washed 4 times with IPP100 buffer, boiled in 50 µl of Laemmli Sample Buffer (Bio-Rad), centrifuged and the eluted proteins were collected. Samples were stored at -20°C. Pull-down samples were boiled at 95°C for 5 minutes and bounded fractions (10%) were loaded on two identical 15% SDS-Page acrylamide gel. The immunoblotting was performed following the procedure reported below.

A further test concerns the target T2, 6xHis-DUX4 dbd (UniProt Q9UBX2 1-159).
T2 construct: range 1-159; Expressed in E. coli from pET-GB1 and purified on nickel beads; The limits 1-159 come from the phrase pETGB1-6xHis-DUX4 dbd (residues 1-159); also called DUX4 dbd (HD1+HD2); not shown: 6xHis tag and GB1 solubility peptide of vector pET-GB1
The test can be described thus: GST pull-down with purified recombinant proteins.

T1 sequence (Q9UBX2 1-159): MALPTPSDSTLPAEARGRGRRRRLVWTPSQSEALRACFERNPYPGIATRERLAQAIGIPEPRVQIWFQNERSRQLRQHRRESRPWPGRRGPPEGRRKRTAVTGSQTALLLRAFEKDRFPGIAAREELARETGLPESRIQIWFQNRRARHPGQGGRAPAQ
T2 sequence (Q9UBX2 1-159): as above

“(Biotin)- ERCRDDSFFGETSHNYHKFDSEYERMGRGPG PLQERSLFEKKRGAPPSSNIEDFHGLLPK -NH2 [Peptide 3]”: the “interaction with DUX4 dbd (pulldown, synthetic peptides)” value at DUX4 dbd was “interacted with DUX4 dbd”; on DUX4 dbd (listed as Pep 3), “interact with DUX4 dbd”.
With “(Biotin)- SFDDRGPSLNPVLDYDHGSRSQESGYYDRMD YEDDRLRDGERCRDDSFFGETSHNYHKFDS-NH2 [Peptide 2]”, the “interaction with DUX4 dbd (pulldown, synthetic peptides)” value on DUX4 dbd is given as “interacted with DUX4 dbd”; on DUX4 dbd (listed as Pep 2), “interact with DUX4 dbd”.

B1: GST-MATR3(2-151) (other)
chain: SKSFQQSSLSRDSQGHGRDLSAAGIGLLAAATQSLSMPASLGRMNQGTARLASLMNLGMSSSLNQQGAHSALSSASTSSHNLQSIFNIGSRGPLPLSSQHRGDADQASNILASFGLSARDLDELSRYPEDKITPENLPQILLQLKRRRTE
notes: not shown: GST tag and thrombin site of vector pGEX-2tk
For the molecule B1, the binding result in the test with 6xHis-DUX4 dbd is reported as “no binding (tested: 40 pmol each)”.
